# Experimental data: PubChem BioAssay (NCI)
#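 Each compound was tested at five concentrations against cells in 96-well plates for 48 hours. GI50 is the concentration that inhibits growth by half. At the TGI there is no net growth.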
# Assays:
# Assay in all cases: NCI tumour cell line growth inhibition, 48 h
# [1] = test system: SR leukemia
# [2] = test system: K-562 leukemia
# [3] = test system: OVCAR-5 ovarian
# [4] = test system: ACHN renal
# [5] = test system: RPMI-8226 leukemia
# [6] = test system: UO-31 renal
# [7] = test system: 786-0 renal
# [8] = test system: A549 NSCLC
# [9] = test system: RXF 393 renal
# [10] = test system: OVCAR-4 ovarian
# [11] = test system: MDA-MB-435
# [12] = test system: U251 CNS
# [13] = test system: M14 melanoma
# [14] = test system: SNB-19 CNS
# [15] = test system: DU-145 prostate
# [16] = test system: HOP-62 NSCLC
# [17] = test system: IGROV1 ovarian
# [18] = test system: SF-268 CNS
# [19] = test system: UACC-62 melanoma
# [20] = test system: CCRF-CEM leukemia
# [21] = test system: HT29 colon
# [22] = test system: MDA-MB-231 breast
# [23] = test system: HCT-116 colon
# [24] = test system: SN12C renal
# [25] = test system: SK-OV-3 ovarian
# [26] = test system: BT-549 breast
# [27] = test system: OVCAR-8 ovarian
# [28] = test system: MALME-3M melanoma
# [29] = test system: OVCAR-3 ovarian
# [30] = test system: T-47D breast
# [31] = test system: SK-MEL-5 melanoma
# [32] = test system: TK-10 renal
# [33] = test system: NCI-H522 lung
# [34] = test system: HCT-15 colon
# [35] = test system: NCI-H226 lung
# [36] = test system: SF-539 CNS
# [37] = test system: NCI/ADR-RES ovarian
# [38] = test system: SNB-75 CNS
# [39] = test system: HS 578T breast
# [40] = test system: SK-MEL-28 melanoma
# [41] = test system: HOP-92 NSCLC
# [42] = test system: SK-MEL-2 melanoma
# [43] = test system: CAKI-1 renal
# [44] = test system: SW-620 colon
# [45] = test system: NCI-H23 lung
# [46] = test system: HCC-2998 colon
# [47] = test system: EKVX NSCLC
# [48] = test system: NCI-H460 lung
# [49] = test system: A498 renal
# [50] = test system: UACC-257 melanoma
# [51] = test system: HL-60(TB) leukemia
# [52] = test system: MOLT-4 leukemia
# [53] = test system: SF-295 CNS
# [54] = test system: LOX IMVI melanoma
# [55] = test system: KM12 colon
# [56] = test system: COLO 205 colon
smiles,measurement,setting,value
COC(=O)c1c2c(c(C)[n+]([O-])c1C)C(=O)C=CC2=O,GI50,[1],2280 nM
same,TGI,[1],8190 nM
same,GI50,[2],3040 nM
same,TGI,[2],36000 nM
same,GI50,[3],1760 nM
same,TGI,[3],3230 nM
same,GI50,[4],1900 nM
same,TGI,[4],3770 nM
same,GI50,[5],2070 nM
same,TGI,[5],5290 nM
same,GI50,[6],1690 nM
same,TGI,[6],3390 nM
same,GI50,[7],2060 nM
same,TGI,[7],4510 nM
same,GI50,[8],3120 nM
same,TGI,[8],11600 nM
same,GI50,[9],1420 nM
same,TGI,[9],2880 nM
same,GI50,[10],1200 nM
same,TGI,[10],2470 nM
same,GI50,[11],1790 nM
same,TGI,[11],3310 nM
same,GI50,[12],1480 nM
same,TGI,[12],2830 nM
same,GI50,[13],1780 nM
same,TGI,[13],3450 nM
same,GI50,[14],1670 nM
same,TGI,[14],3310 nM
same,GI50,[15],1820 nM
same,TGI,[15],3220 nM
same,GI50,[16],744 nM
same,TGI,[16],2270 nM
same,GI50,[17],1740 nM
same,TGI,[17],4250 nM
same,GI50,[18],2050 nM
same,TGI,[18],5520 nM
same,GI50,[19],1630 nM
same,TGI,[19],3210 nM
same,GI50,[20],55.9 nM
same,TGI,[20],7300 nM
same,GI50,[21],2410 nM
same,TGI,[21],6540 nM
same,GI50,[22],2680 nM
same,TGI,[22],8280 nM
same,GI50,[23],945 nM
same,TGI,[23],7500 nM
same,GI50,[24],1620 nM
same,TGI,[24],3100 nM
same,GI50,[25],2260 nM
same,TGI,[25],5380 nM
same,GI50,[26],1720 nM
same,TGI,[26],3140 nM
same,GI50,[27],339 nM
same,TGI,[27],1240 nM
same,GI50,[28],1530 nM
same,TGI,[28],2920 nM
same,GI50,[29],314 nM
same,TGI,[29],1050 nM
same,GI50,[30],1970 nM
same,TGI,[30],7260 nM
same,GI50,[31],1140 nM
same,TGI,[31],2410 nM
same,GI50,[32],2740 nM
same,TGI,[32],7740 nM
same,GI50,[33],1660 nM
same,TGI,[33],3670 nM
same,GI50,[34],1430 nM
same,TGI,[34],3310 nM
same,GI50,[35],1420 nM
same,TGI,[35],2980 nM
same,GI50,[36],1800 nM
same,TGI,[36],3200 nM
same,GI50,[37],2330 nM
same,TGI,[37],7780 nM
same,GI50,[38],1720 nM
same,TGI,[38],3120 nM
same,GI50,[39],2840 nM
same,TGI,[39],8640 nM
same,GI50,[40],1960 nM
same,TGI,[40],3600 nM
same,GI50,[41],2120 nM
same,TGI,[41],6030 nM
same,GI50,[42],1890 nM
same,TGI,[42],3990 nM
same,GI50,[43],1950 nM
same,TGI,[43],4200 nM
same,GI50,[44],1540 nM
same,TGI,[44],3740 nM
same,GI50,[45],1630 nM
same,TGI,[45],4270 nM
same,GI50,[46],1640 nM
same,TGI,[46],3130 nM
same,GI50,[47],2020 nM
same,TGI,[47],5120 nM
same,GI50,[48],2720 nM
same,TGI,[48],7400 nM
same,GI50,[49],3580 nM
same,TGI,[49],13900 nM
same,GI50,[50],1570 nM
same,TGI,[50],3340 nM
same,GI50,[51],2160 nM
same,TGI,[51],4840 nM
same,GI50,[52],1690 nM
same,TGI,[52],4650 nM
same,GI50,[53],1780 nM
same,TGI,[53],3340 nM
same,GI50,[54],1440 nM
same,TGI,[54],3040 nM
same,GI50,[55],1990 nM
same,TGI,[55],4770 nM
same,GI50,[56],1640 nM
same,TGI,[56],3350 nM
